Results as given in patent US10287277B2, “Fumagillol derivatives and polymorphs thereof” (SynDevRx, Inc., priority 2015, dated 2019).
One block for each compound: values may come before it.

Assays:
[1] = system: BC-1 (B-Cell Lymphoma); experiment: Single agent cell viability assay (CellTiter-Glo), 72 h continuous exposure; format: cell-based; details: Homo sapiens, BC1, BC-1 cells
Description: (§1) The half-maximal inhibitory concentration(s) (IC50) of Formula I as a single agent against a panel of human hematological tumor cell lines was investigated. All cell lines were grown in their respective proper growth media supplemented with 5-10% FBS and housed in an atmosphere of 5% CO2 at 37° C.
(§2) Cell Viability Assay—72 Hours Continuous Exposure Time
(§3) 1. 0 hr: Cells were plated in growth media in 96-well microtiter plates at a 200 μL volume. Cells were incubated for 24 hours at 37° C. in a humidified incubator.
(§4) 2. 24 hr: The test agent's drug doses were achieved using HP D300 Digital Dispenser. Briefly, the digital dispenser added test agent in a DMSO solvent at precise volumes to media containing wells. Control wells received equivolumes of DMSO that test agents wells received. Following drugging, cells were exposed at the concentrations and dilutions described in Table 20 for 72 hours at 37° C. in a humidified incubator.
(§5) 3. 72 hr: Following 72 hour exposure, 100 μl of a 1:1 mixture of sterile water and CellTiter-Glo® Reagent was added to each well. The plates are incubated for 60 minutes at room temperature. After incubation, luminescence was recorded using a luminometer. The results are shown below in Table 21 and in FIGS. 15A, 15B, 15C and 15D.
(§6) Data is expressed as the percent cell growth of the untreated (vehicle) control calculated from the luminescence signals. The surviving fraction of cells was determined by dividing the mean luminescence values of the test agents by the mean luminescence values of untreated control. The inhibitory concentration value for the test agent(s) and control was estimated using Prism 6 software (GraphPad Software, Inc.) by curve-fitting the data using the non-linear regression analysis.

[2] = system: SU-DHL-10 (Diffuse Large B-Cell Lymphoma); experiment: as above; format: cell-based; details: Homo sapiens, SU-DHL10, SU-DHL-10 cells
Description: as §1, §2, §3, §4, §5, §6

[3] = system: Jeko-1 (Mantle Cell Lymphoma); experiment: as above; format: cell-based; details: Homo sapiens, Jeko-1 cells
Description: as §1, §2, §3, §4, §5, §6

[4] = system: U266 (Myeloma); experiment: as above; format: cell-based; details: Homo sapiens, U-266, U266 cells
Description: as §1, §2, §3, §4, §5, §6

[5] = Storage stability, 40° C., 75% RH; format: physicochemical; details: for Appearance / Impurity Compound 2 / Impurity Compound 4 / Impurity Compound 5 / Largest individual unknown impurity / Total Impurities / Water Content: 40° C., 75% RH
Description: (§7) As shown below, the compounds can remain >99% pure after being held at 25° C. and 60% relative humidity for six months. The compounds can remain >95% pure after being held at 40° C. and 75% relative humidity for six months.

[6] = Storage stability, 25° C., 60% RH; format: physicochemical; details: for Appearance / Impurity Compound 2 / Impurity Compound 4 / Impurity Compound 5 / Largest individual unknown impurity / Total Impurities / Water Content: 25° C., 60% RH
Description: as §7

[7] = Stability of salt forms versus free base (statement in words); details: comparison of free base, hemi-tartrate and benzenesulfonic acid salt

IC50 [1]: 0.02 µM
IC50 [2]: 0.00085 µM
SMILES: COc1cccc2c1C(=O)c1c(O)c3c(c(O)c1C2=O)C[C@@](O)(C(=O)CO)C[C@@H]3O[C@H]1C[C@H](N)[C@H](O)[C@H](C)O1 [Adriamycin, reference compound]

IC50 [3]: 0.4 µM
IC50 [4]: 0.0024 µM
SMILES: CC(C)C[C@H](NC(=O)[C@H](Cc1ccccc1)NC(=O)c1cnccn1)B(O)O [Bortezomib, reference compound]

Appearance ([5]; 0 Months): White powder,
Impurity Compound 2 ([5]; 0 Months): <0.1%
Impurity Compound 4 ([5]; 0 Months): <0.1%
Impurity Compound 5 ([5]; 0 Months): 0.1%
Largest individual unknown impurity ([5]; 0 Months): <0.1%
Total Impurities ([5]; 0 Months): 0.1%
Water Content ([5]; 0 Months): 0.41%
Appearance ([5]; 1 Month): White powder,
Impurity Compound 2 ([5]; 1 Month): 1.0%
Impurity Compound 5 ([5]; 1 Month): 0.1%
Largest individual unknown impurity ([5]; 1 Month): 0.2%
Total Impurities ([5]; 1 Month): 1.5%
Water Content ([5]; 1 Month): 1.54%
Appearance ([5]; 2 Months): White powder,
Impurity Compound 2 ([5]; 2 Months): 1.4%
Impurity Compound 4 ([5]; 2 Months): 0.3%
Impurity Compound 5 ([5]; 2 Months): 0.1%
Largest individual unknown impurity ([5]; 2 Months): 0.3%
Total Impurities ([5]; 2 Months): 2.4%
Water Content ([5]; 2 Months): 1.19%
Appearance ([5]; 3 Months): White powder,
Impurity Compound 2 ([5]; 3 Months): 1.6%
Impurity Compound 4 ([5]; 3 Months): 0.5%
Impurity Compound 5 ([5]; 3 Months): 0.2%
Largest individual unknown impurity ([5]; 3 Months): 0.4%
Total Impurities ([5]; 3 Months): 3.1%
Water Content ([5]; 3 Months): 2.57%
Appearance ([5]; 6 months): White powder,
Impurity Compound 2 ([5]; 6 months): 1.5%
Impurity Compound 4 ([5]; 6 months): 1.4%
Impurity Compound 5 ([5]; 6 months): 0.5%
Largest individual unknown impurity ([5]; 6 months): 0.3%
Total Impurities ([5]; 6 months): 4.2%
Water Content ([5]; 6 months): 3.19%
purity remaining after storage ([5]; held at 40° C. and 75% relative humidity for six months): > 95%
Appearance ([6]; 0 Months): White powder,
Impurity Compound 2 ([6]; 0 Months): <0.1%
Impurity Compound 4 ([6]; 0 Months): <0.1%
Impurity Compound 5 ([6]; 0 Months): 0.1%
Largest individual unknown impurity ([6]; 0 Months): <0.1%
Total Impurities ([6]; 0 Months): 0.1%
Water Content ([6]; 0 Months): 0.41%
Appearance ([6]; 1 Month): White powder,
Impurity Compound 2 ([6]; 1 Month): 0.3%
Impurity Compound 5 ([6]; 1 Month): 0.1%
Largest individual unknown impurity ([6]; 1 Month): <0.1%
Total Impurities ([6]; 1 Month): 0.5%
Water Content ([6]; 1 Month): 0.60%
Appearance ([6]; 2 Months): White powder,
Impurity Compound 2 ([6]; 2 Months): 0.4%
Impurity Compound 4 ([6]; 2 Months): 0.1%
Impurity Compound 5 ([6]; 2 Months): 0.1%
Largest individual unknown impurity ([6]; 2 Months): <0.1%
Total Impurities ([6]; 2 Months): 0.5%
Water Content ([6]; 2 Months): 0.57%
Appearance ([6]; 3 Months): White powder,
Impurity Compound 2 ([6]; 3 Months): 0.5%
Impurity Compound 4 ([6]; 3 Months): 0.1%
Impurity Compound 5 ([6]; 3 Months): 0.1%
Largest individual unknown impurity ([6]; 3 Months): <0.1%
Total Impurities ([6]; 3 Months): 0.7%
Water Content ([6]; 3 Months): 1.73%
Appearance ([6]; 6 months): White powder,
Impurity Compound 2 ([6]; 6 months): 0.6%
Impurity Compound 4 ([6]; 6 months): 0.1%
Impurity Compound 5 ([6]; 6 months): 0.1%
Largest individual unknown impurity ([6]; 6 months): <0.1%
Total Impurities ([6]; 6 months): 0.9%
Water Content ([6]; 6 months): 1.58%
purity remaining after storage ([6]; held at 25° C. and 60% relative humidity for six months): > 99%
SMILES: CO[C@@H]1[C@H](OC(=O)N[C@H]2CC[C@H](N)CC2)CC[C@]2(CO2)[C@H]1[C@@]1(C)O[C@@H]1CC=C(C)C.O=S(=O)(O)c1ccccc1 [Form II of Formula I, fumagill-6-yl N-(trans-4-aminocyclohexyl)carbamate benzenesulfonic acid salt]

IC50 [1]: 20.4 µM
IC50 [3]: 30.7 µM
IC50 [4]: 54.6 µM
IC50 [2]: 6.2 µM
SMILES: COC1C(OC(=O)N[C@H]2CC[C@H](N)CC2)CC[C@]2(CO2)C1C1(C)O[C@@H]1CC=C(C)C (stereo partly drawn) [Formula I, (1R,4r)-4-(((((3R,4S,5S,6R)-5-methoxy-4-((2R,3R)-2-methyl-3-(3-methylbut-2-en-1-yl)oxiran-2-yl)-1-oxaspiro[2.5]octan-6-yl)oxy)carbonyl)amino)cyclohexan-1-aminium benzenesulfonate]

stability (in words) [7]: inherently unstable
SMILES: COC1C(OC(=O)N[C@H]2CC[C@H](N)CC2)CCC2(CO2)C1C1(C)OC1CC=C(C)C (stereo partly drawn) [free base form of Formula I, fumagill-6-yl N-(trans-4-aminocyclohexyl)carbamate]
